Measurements published in US5126258A (priority 1988, dated 1992).

Assays:
[1] = test system: 37G2; assay: Hydrolysis of reactant ligands by receptor 37G2; format: biochemical, mouse; design: key to hydrolysis by 37G2, symbol: --: No hydrolysis observed; conditions: pH 8.0; for hydrolysis by 37G2: receptor/ligand uM, time h: 17 1/10, 2, 18 2/10, 24, 20 2/10, 0.33, 5 1/5, 0.33, 22 5/10, 3.5, preliminary; for hydrolysis by 37G2, symbol: 19: 2/5 uM, 21: 5/10 uM receptor/ligand
Procedure: (§1) ^1 Preliminary initial hydrolyses shown as the percentage of admixed
(§2) reactant ligand consumed for catalyzed and spontaneous hydrolyses. "--" =
(§3) No hydrolysis observed. "NT" = Not tried. All reactions were carried out
(§4) at pH 8.0 in a 50 mM phosphate buffer unless otherwise noted. Hydrolytic
(§5) percentages were determined by HPLC using a Hitachi model 655A12 liquid
(§6) chromatograph with a C18 Vydac 201TP54 column, except as noted below.
(§7) Mixtures of acetonitrile a nd water containing 0.1 percent trichloroaceti
(§8) acid [28:72-50:50 (v/v)] were used as elutant. Hydrolyses of Compounds 5
(§9) and 20 were assayed using fluorescence data.
(§10) ^2 Concentrations of receptor molecules (Rec.) and reactant ligands
(§11) (Lig.) in micromolar units, presuming a molecular weight of 150,000
(§12) daltons for each receptor molecule.
(§13) ^3 Reactant ligand (Lig.) used as substrate.
(§14) ^4 Time in hours that the reaction was permitted to take place.
(§15) ^5 Spontaneous hydrolytic percentages for the time period indicated.
(§16) ^6 Reaction carried out at pH 7.2 in a 50 mM phosphate buffer.

[2] = test system: 21G2; assay: Hydrolysis of reactant ligands by receptor 21G2; format: biochemical, mouse; design: key to hydrolysis by 21G2, symbol: --: No hydrolysis observed; conditions: pH 8.0; for hydrolysis by 21G2: receptor/ligand uM, time h: 17 1/10, 2, 18 2/10, 24, 20 2/10, 0.33, 5 1/5, 0.33, 22 5/10, 3.5, preliminary; for hydrolysis by 21G2, symbol: 19: 2/5 uM, 21: 5/10 uM receptor/ligand
Procedure: as §1, §2, §3, §4, §5, §6, §7, §8, §9, §10, §11, §12, §13, §14, §15, §16

[3] = test system: 22F5; assay: Hydrolysis of reactant ligands by receptor 22F5; format: biochemical, mouse; design: key to hydrolysis by 22F5, symbol: --: No hydrolysis observed; conditions: pH 8.0; for hydrolysis by 22F5: receptor/ligand uM, time h: 17 1/10, 2, 18 2/10, 24, 20 2/10, 0.33, 5 1/5, 0.33, 22 5/10, 3.5, preliminary; for hydrolysis by 22F5, symbol: 19: 2/5 uM, 21: 5/10 uM receptor/ligand
Procedure: as §1, §2, §3, §4, §5, §6, §7, §8, §9, §10, §11, §12, §13, §14, §15, §16

[4] = test system: 1209; assay: Hydrolysis of reactant ligands by receptor 12C9 (column head prints 1209); format: biochemical, mouse; design: key to hydrolysis by 1209, symbol: --: No hydrolysis observed; conditions: pH 8.0; for hydrolysis by 1209: receptor/ligand uM, time h: 17 1/10, 2, 18 2/10, 24, 20 2/10, 0.33, 5 1/5, 0.33, 22 5/10, 3.5, preliminary; for hydrolysis by 1209, symbol: 19: 2/5 uM, 21: 5/10 uM receptor/ligand
Procedure: as §1, §2, §3, §4, §5, §6, §7, §8, §9, §10, §11, §12, §13, §14, §15, §16

[5] = Spontaneous (uncatalyzed, background) hydrolysis; format: physicochemical; design: key to Spon. (spontaneous hydrolysis), symbol: --: No hydrolysis observed; conditions: for Spon. (spontaneous hydrolysis): pH 8.0, 50 mM phosphate, time (h): 17 2, 18 24, 20 0.33, 5 0.33, 22 3.5; for Spon. (spontaneous hydrolysis), symbol: pH 8.0
Procedure: The practical range of pH for the assay is limited by the rapid spontaneous rate of hydrolysis of an ester Compound 5 above pH 8.0. Initially, the ester was used at a concentration that was about four-fold greater than that of the protein, and the mixture was incubated at pH 7.2 for 10 minutes. Any change in fluorescence above background was noted.
The lack of spectroscopic distinction between such esters and their hydrolysis products recommended a chromatographic analysis of the process. Referring to FIG. 3, a mixture of Compound 7 (5 uM) and the monoclonal antibody from hybridoma P3 6D4 (0.1 uM) in phosphate buffer (50 mM, pH 8.0) was analyzed over time by high performance liquid chromatography (HPLC). The accelerated hydrolysis of the ester was apparent from the decrease of its peak and the concurrent increase in two new peaks that correspond with the expected products. Under these conditions, the ester is completely consumed in 60-80 minutes during which time the background rate accounts for about 12 to 16 percent hydrolysis. The chromatographic profile is the same as that produced by treatment with hog liver esterase.
^c The rate constants were determined spectrophotometrically (at 245
nm) by measuring initial rates at five concentrations of ester.
as §1, §2, §3, §4, §5, §6, §7, §8, §9, §15
Reaction kinetics were studied using three reactant ligands as substrates for monoclonal receptors 37G2 and 22F5. Data from initial rates were consistent with Michaelis-Menten reaction mechanism for a usual enzyme-substrate system. Initial rates were followed using at 271 nm using a U.V.-visible spectorphotometer for Compound 17, and a fluorescence spectrometer for Compounds 5 and 20, using an excitation wavelength of 355 nm and an emission wavelength of 455 nm for both compounds.

[6] = test system: 17G8; assay: Hydrolysis of reactant ligands by receptor 17G8; format: biochemical, mouse; design: key to hydrolysis by 17G8, symbol: --: No hydrolysis observed; conditions: pH 8.0; for hydrolysis by 17G8: receptor/ligand uM, time h: 18 2/10, 24, 20 2/10, 0.33, 5 1/5, 0.33, 22 5/10, 3.5, preliminary; for hydrolysis by 17G8, symbol: 19: 2/5 uM, 21: 5/10 uM receptor/ligand
Procedure: as §1, §2, §3, §4, §5, §6, §7, §8, §9, §10, §11, §12, §13, §14, §15, §16

[7] = test system: 7E5; assay: Hydrolysis of reactant ligands by receptor 7E5; format: biochemical, mouse; design: key to hydrolysis by 7E5, symbol: --: No hydrolysis observed; conditions: pH 8.0; for hydrolysis by 7E5: receptor/ligand uM, time h: 17 1/10, 2, 18 2/10, 24, 20 2/10, 0.33, 5 1/5, 0.33, 22 5/10, 3.5, preliminary; for hydrolysis by 7E5, symbol: 19: 2/5 uM, 21: 5/10 uM receptor/ligand
Procedure: as §1, §2, §3, §4, §5, §6, §7, §8, §9, §10, §11, §12, §13, §14, §15, §16

[8] = test system: 13E10; assay: Hydrolysis of reactant ligands by receptor 13E10; format: biochemical, mouse; design: key to hydrolysis by 13E10, symbol: --: No hydrolysis observed; conditions: pH 8.0; for hydrolysis by 13E10: receptor/ligand uM, time h: 17 1/10, 2, 18 2/10, 24, 20 2/10, 0.33, 5 1/5, 0.33, 22 5/10, 3.5, preliminary; for hydrolysis by 13E10, symbol: 19: 2/5 uM, 21: 5/10 uM receptor/ligand
Procedure: as §1, §2, §3, §4, §5, §6, §7, §8, §9, §10, §11, §12, §13, §14, §15, §16

[9] = test system: eight monoclonal receptors 21G2, 7E5, 37G2, 13E10, 12C9, 44A2, 17G8 and 22F5; assay: Catalyzed hydrolysis of reactant ligands by the eight QPN1 monoclonal receptors, summary; format: biochemical, mouse; conditions: pH 8.0
Procedure: Mice were hyperimmunized with the Compound 13-KLH conjugate over a three to four week time period. Sera were assayed in an ELISA using a Compound 13-BSA conjugate bound to microtiter plate wells as the solid-phase antigen. Cloned hybridomas were also screened using that ELISA assay.
Each of those catalyses could be inhibited by an appropriate analog-ligand. Thus, a relatively high percentage of induced monoclonal receptors was capable of catalyzing an esterolytic reaction. The reason for this relatively high percentage of useful receptors being induced is unknown, but could be due to the presence of phosphonamidate group nitrogen atom, as compared to a phosphonate oxygen atom, or to the quinoline nucleus of the analog-ligand. Those eight catalytic monoclonal receptors and the hybridomas that secrete them are identified by the laboratory designations "QPN1 7E5", "QPN1 12C9", "QPN1 13E10", "QPN1 17G8", "QPN1 21G2", "QPN1 22F5", "QPN1 37G2" and QPN1 44A2. The prefix "QPNI" is sometimes omitted herein when discussing these hybridomas and receptors.
Amide cleavage for Compounds 14 and 15 was assayed by analyzing for the production of free aminoquinaldine or aminonaphthalene by measuring the increase in the azo dye that results from derivatizing the free aminoquinaldine or aminonapthalene with a diazotization reagent.
Catalysis reactions were conducted by preparing a reaction admixture of 100 microliters (ul) total volume containing 5 micromolar (uM) monoclonal antibody, 50-75 uM amide reactant ligand substrate and a buffer described hereinafter. The buffer included in the above admixture varied depending upon the pH utilized as follows: pH 5, 10 […] sodium acetate, 10 mM sodium chloride; pH 7.2, 10 mM sodium phosphate, 0.15 molar (M) sodium chloride; pH 8.0; 50 mM sodium phosphate. The amide-containing substrates screened in this assay were added to the above admixture in 1 ul of a 100-fold concentrated stock solution of dimethyl formamide (DMF). Monoclonal antibody was added to the above admixture from a concentrated stock solution. The resulting admixture was placed into the well of a 96 well flat bottom microtiter plate (Costar, Cambridge, Mass.) and maintained in a moist vapor environment chamber at 23 degrees C. The production of aminoquinaldine or aminonaphthalene was then assayed as described below after 2,3,5, or 6 days.
The aminoquinaldine or aminonapthalene product produced by the catalyzed reaction was measured by first admixing 20 ul of 5M HCl, 80 ul acetone and 10 ul 0.5% (w/v) sodium nitrite to the reaction admixture to form a second admixture and maintaining that second admixture for 3 minutes at room temperature. Thereafter, 10 ul 2.5% (w/v) ammonium sulfamate was added to form a third admixture that was maintained for 2 minutes at room temperature. A still further 10 ul of 0.5% (w/v) N-(1-napthyl)ethylenediamine dihydrochloride was added to form a fourth admixture that was then maintained for 15 minutes at room temperature. Thereafter the resulting azo dye present in the fourth admixture was measured by absorbance spectroscopy at 540 nanometers (nm) for aminoquinaldine using a Model EL 309 Automated Microplate Reader (Bio-Tek Instruments, Winooski, Vt.).

[10] = test system: 44A2; assay: Hydrolysis of reactant ligands by receptor 44A2; format: biochemical, mouse; design: key to hydrolysis by 44A2, symbol: --: No hydrolysis observed; conditions: pH 8.0; for hydrolysis by 44A2: receptor/ligand uM, time h: 17 1/10, 2, 18 2/10, 24, 20 2/10, 0.33, 5 1/5, 0.33, 22 5/10, 3.5, preliminary; for hydrolysis by 44A2, symbol: 19: 2/5 uM, 21: 5/10 uM receptor/ligand
Procedure: as §1, §2, §3, §4, §5, §6, §7, §8, §9, §10, §11, §12, §13, §14, §15, §16

SMILES | hydrolysis by 37G2 [1] | hydrolysis by 21G2 [2] | hydrolysis by 22F5 [3] | hydrolysis by 1209 [4] | Spon. (spontaneous hydrolysis) [5] | hydrolysis by 17G8 [6] | hydrolysis by 7E5 [7] | hydrolysis by 13E10 [8] | receptors (of eight) that catalyzed hydrolysis of the compound [9] | hydrolysis by 44A2 [10] | hydrolysis by 37G2, symbol [1] | hydrolysis by 21G2, symbol [2] | hydrolysis by 22F5, symbol [3] | hydrolysis by 1209, symbol [4] | Spon. (spontaneous hydrolysis), symbol [5] | hydrolysis by 17G8, symbol [6] | hydrolysis by 7E5, symbol [7] | hydrolysis by 13E10, symbol [8] | hydrolysis by 44A2, symbol [10]
CC(=O)Oc1cccc2ccccc12 [Compound 18] | 92 percentage of reactant ligand | 72 percentage of reactant ligand | 100 percentage of reactant ligand | 56 percentage of reactant ligand | 34 percentage of reactant ligand | 84 percentage of reactant ligand | 76 percentage of reactant ligand | 69 percentage of reactant ligand | all of the receptors except 12C9 catalyzed the hydrolysis | 84 percentage of reactant ligand |  |  |  |  |  |  |  |  | 
COC(=O)Cc1ccc(NC(C)=O)cc1 [Compound 19] |  |  |  |  |  |  |  |  | none of the receptors |  | -- | -- | -- | -- | -- | -- | -- | -- | --
CC(=O)Nc1ccc(CC(=O)Oc2ccccc2NC(C)=O)cc1 [Compound 21] |  |  |  |  |  |  |  |  | lack of hydrolysis |  | -- | -- | -- | -- | -- | -- | -- | -- | --
CC(=O)Nc1ccc(CC(=O)Oc2ccccc2)cc1 [Compound 22] | 45 percentage of reactant ligand | 19 percentage of reactant ligand | 26 percentage of reactant ligand | 12 percentage of reactant ligand | 5 percentage of reactant ligand | 22 percentage of reactant ligand | 9 percentage of reactant ligand | 14 percentage of reactant ligand |  | 24 percentage of reactant ligand |  |  |  |  |  |  |  |  | 
